Assay results taken from ChEMBL document CHEMBL1201862, “PubChem BioAssay data set” (2004).
The source made the active and inactive calls.

Assays:
[1] = NIH-3T3 fibroblast cytotoxicity, dose response, cytotoxicity control, cell-based, fluorescence, Alamar Blue, secondary assay (AID 2327); format: functional;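 further: NIH-3T3 mouse fibroblasts cultured with fluconazole at 8 µg/mL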
[2] = target: T1, Voltage-gated N-type calcium channel alpha-1B subunit/Amyloid beta A4 precursor protein-binding family A member 1 (Homo sapiens, UniProt Q00975+Q02410); format: protein assay
T1 sequence (Q00975 whole entry): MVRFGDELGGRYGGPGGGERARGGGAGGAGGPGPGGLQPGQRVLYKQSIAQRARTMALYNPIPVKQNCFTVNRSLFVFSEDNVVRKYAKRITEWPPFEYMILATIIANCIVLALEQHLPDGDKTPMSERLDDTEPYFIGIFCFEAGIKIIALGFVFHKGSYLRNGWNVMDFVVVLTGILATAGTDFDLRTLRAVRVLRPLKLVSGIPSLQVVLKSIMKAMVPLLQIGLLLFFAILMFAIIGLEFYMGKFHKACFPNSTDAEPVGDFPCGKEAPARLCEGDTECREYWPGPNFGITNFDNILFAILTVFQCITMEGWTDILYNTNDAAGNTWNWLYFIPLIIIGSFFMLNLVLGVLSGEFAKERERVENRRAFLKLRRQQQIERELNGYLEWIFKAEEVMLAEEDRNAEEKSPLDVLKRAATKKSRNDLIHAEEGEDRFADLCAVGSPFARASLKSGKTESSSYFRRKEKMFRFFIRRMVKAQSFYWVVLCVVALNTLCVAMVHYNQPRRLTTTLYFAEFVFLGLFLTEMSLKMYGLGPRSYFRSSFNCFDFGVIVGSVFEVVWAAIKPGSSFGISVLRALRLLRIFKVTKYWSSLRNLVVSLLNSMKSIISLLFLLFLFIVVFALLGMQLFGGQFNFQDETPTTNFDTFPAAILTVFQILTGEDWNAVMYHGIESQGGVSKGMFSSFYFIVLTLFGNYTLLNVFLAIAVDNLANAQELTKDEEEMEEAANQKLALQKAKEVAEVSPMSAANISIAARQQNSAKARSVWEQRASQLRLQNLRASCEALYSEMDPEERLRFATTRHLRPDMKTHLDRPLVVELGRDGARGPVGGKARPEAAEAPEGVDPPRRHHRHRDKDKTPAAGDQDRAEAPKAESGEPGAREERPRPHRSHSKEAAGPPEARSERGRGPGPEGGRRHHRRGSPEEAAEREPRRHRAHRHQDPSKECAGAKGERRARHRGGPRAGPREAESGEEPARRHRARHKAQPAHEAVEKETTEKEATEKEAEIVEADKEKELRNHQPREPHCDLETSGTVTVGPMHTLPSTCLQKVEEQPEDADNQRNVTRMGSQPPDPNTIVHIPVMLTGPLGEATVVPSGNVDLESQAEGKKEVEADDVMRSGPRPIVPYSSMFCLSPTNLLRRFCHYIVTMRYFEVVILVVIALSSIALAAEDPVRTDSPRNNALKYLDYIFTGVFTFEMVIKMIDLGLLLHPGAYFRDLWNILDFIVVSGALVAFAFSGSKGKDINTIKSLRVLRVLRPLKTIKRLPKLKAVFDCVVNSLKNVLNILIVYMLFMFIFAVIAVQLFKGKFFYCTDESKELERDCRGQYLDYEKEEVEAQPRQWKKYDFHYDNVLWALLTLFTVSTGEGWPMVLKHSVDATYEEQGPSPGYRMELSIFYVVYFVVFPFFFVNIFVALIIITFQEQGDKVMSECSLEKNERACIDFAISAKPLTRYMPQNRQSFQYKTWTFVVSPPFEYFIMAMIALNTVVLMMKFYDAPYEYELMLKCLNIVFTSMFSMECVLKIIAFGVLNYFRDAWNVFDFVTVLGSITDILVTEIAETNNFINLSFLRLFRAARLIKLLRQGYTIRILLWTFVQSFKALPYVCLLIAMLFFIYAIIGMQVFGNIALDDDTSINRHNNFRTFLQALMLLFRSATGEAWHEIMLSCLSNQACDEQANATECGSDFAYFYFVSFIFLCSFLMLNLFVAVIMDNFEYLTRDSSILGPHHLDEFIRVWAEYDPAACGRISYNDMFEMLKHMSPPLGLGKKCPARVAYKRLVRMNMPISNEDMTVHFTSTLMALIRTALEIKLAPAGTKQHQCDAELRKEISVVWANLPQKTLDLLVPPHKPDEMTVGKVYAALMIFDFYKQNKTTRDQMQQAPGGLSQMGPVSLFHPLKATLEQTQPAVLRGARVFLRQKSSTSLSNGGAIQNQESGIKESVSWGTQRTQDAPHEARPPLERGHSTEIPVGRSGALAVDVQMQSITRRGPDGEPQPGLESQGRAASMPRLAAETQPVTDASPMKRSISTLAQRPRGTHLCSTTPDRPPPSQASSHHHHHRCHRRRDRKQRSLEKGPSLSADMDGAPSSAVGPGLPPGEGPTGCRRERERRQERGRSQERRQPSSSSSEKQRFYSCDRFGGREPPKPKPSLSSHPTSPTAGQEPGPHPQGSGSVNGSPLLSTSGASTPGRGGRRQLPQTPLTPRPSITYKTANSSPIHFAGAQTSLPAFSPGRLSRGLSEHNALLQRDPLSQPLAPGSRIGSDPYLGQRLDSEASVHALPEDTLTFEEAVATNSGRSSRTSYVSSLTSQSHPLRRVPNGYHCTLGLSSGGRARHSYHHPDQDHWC
T1 sequence (Q02410 whole entry): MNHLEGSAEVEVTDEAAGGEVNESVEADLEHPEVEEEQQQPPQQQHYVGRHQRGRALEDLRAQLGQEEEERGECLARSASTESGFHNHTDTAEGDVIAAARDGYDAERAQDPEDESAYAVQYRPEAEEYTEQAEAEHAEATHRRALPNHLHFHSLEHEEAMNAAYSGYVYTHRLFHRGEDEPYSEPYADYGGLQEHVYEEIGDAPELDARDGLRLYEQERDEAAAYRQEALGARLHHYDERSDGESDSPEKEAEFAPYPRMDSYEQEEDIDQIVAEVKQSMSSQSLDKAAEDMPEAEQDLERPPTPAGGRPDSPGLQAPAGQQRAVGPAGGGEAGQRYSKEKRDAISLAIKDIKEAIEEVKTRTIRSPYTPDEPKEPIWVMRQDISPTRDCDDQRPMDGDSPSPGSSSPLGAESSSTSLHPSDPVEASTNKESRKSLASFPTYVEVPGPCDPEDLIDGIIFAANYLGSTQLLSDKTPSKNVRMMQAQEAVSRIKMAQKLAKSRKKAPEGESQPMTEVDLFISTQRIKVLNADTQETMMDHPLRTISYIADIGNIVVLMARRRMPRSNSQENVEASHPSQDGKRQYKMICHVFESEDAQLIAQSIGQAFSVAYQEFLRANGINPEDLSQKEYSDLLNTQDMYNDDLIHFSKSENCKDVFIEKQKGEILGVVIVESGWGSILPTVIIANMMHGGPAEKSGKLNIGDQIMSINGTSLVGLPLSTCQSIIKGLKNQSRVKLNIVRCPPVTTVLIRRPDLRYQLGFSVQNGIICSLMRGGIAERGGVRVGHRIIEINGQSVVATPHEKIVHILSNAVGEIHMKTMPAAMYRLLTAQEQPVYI

[3] = target: T2, Long-chain-fatty-acid--AMP ligase FadD28 (Mycobacterium tuberculosis, UniProt P9WQ59); assay: Fluorescence polarization aasay to screen for inhibitors that compete for the binding of FadD28 to a bisubstrate Measured in Biochemical System Using Plate Reader - 2147-01_Inhibitor_Dose_CherryPick_Activity.; format: functional, Mycobacterium tuberculosis H37Rv
T2 sequence (P9WQ59 whole entry): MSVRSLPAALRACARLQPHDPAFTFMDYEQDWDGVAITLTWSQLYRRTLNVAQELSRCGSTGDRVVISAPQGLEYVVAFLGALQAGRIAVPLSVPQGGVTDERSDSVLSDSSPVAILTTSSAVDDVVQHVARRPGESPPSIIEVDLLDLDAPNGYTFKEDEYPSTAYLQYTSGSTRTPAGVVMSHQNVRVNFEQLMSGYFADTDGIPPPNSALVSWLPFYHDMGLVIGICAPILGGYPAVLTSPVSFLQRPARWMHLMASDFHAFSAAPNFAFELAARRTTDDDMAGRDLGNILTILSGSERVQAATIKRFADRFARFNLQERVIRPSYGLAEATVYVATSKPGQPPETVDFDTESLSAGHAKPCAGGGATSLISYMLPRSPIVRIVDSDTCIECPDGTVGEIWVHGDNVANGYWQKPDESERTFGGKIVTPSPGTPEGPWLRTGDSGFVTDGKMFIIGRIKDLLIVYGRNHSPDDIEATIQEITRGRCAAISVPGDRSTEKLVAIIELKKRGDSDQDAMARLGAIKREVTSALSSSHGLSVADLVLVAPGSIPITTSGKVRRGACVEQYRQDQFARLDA

[4] = target: T1, Voltage-gated N-type calcium channel alpha-1B subunit/Amyloid beta A4 precursor protein-binding family A member 1; format: protein assay; remark: listed apart in the source
[5] = C. albicans growth with fluconazole, confirmation, fluorescence, retest (AID 2467); format: functional, cell-based
[6] = target: Eukaryotic translation initiation factor 4H (Homo sapiens, UniProt Q15056); assay: human eIF4H binding inhibitors, primary screen, translation initiation inhibitor project, biochemical, uHTS, fluorescence polarization (AID 2012)
[7] = target: Polyadenylate-binding protein 1 (Homo sapiens, UniProt P11940); assay: PABP poly(A) RNA binding inhibitors, primary screen, biochemical, fluorescence polarization, uHTS (AID 2014)
Polyadenylate-binding protein 1, sequence (P11940 whole entry): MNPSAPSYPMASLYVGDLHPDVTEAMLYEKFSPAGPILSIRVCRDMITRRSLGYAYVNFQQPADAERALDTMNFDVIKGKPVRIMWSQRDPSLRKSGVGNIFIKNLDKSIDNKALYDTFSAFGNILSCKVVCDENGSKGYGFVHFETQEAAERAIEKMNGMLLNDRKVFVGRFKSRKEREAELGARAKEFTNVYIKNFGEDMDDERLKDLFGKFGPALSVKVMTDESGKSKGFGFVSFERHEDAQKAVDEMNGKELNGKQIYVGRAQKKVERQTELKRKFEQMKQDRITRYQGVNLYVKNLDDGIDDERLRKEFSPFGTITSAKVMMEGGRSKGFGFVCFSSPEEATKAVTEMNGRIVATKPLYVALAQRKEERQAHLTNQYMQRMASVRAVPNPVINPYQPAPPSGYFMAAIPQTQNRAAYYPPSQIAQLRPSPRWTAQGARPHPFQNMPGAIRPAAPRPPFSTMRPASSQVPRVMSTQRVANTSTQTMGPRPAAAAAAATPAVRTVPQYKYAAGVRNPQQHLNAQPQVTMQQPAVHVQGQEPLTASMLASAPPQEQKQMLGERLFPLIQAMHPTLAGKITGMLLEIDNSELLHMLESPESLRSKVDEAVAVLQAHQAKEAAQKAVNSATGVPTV

[8] = target: Induced myeloid leukemia cell differentiation protein Mcl-1 (Homo sapiens, UniProt Q07820); format: functional
Induced myeloid leukemia cell differentiation protein Mcl-1, sequence (Q07820 whole entry): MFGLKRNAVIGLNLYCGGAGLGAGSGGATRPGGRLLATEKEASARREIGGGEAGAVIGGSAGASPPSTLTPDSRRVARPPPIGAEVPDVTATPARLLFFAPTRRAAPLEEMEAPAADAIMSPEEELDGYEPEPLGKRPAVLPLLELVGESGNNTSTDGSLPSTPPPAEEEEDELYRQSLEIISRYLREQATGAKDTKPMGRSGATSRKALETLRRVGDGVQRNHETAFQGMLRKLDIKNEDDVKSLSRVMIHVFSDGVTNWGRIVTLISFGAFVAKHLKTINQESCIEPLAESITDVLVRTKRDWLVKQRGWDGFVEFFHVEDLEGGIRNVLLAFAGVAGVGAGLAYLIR

Cytochrome P450 2D6 = Cytochrome P450 2D6 (Homo sapiens, UniProt P10635); assay: qHTS Assay for Inhibitors and Substrates of Cytochrome P450 2D6. [Related pubchem assays: 410 ]; format: ADME; conditions: read-out: Potency
Cytochrome P450 2D6, sequence (P10635 whole entry): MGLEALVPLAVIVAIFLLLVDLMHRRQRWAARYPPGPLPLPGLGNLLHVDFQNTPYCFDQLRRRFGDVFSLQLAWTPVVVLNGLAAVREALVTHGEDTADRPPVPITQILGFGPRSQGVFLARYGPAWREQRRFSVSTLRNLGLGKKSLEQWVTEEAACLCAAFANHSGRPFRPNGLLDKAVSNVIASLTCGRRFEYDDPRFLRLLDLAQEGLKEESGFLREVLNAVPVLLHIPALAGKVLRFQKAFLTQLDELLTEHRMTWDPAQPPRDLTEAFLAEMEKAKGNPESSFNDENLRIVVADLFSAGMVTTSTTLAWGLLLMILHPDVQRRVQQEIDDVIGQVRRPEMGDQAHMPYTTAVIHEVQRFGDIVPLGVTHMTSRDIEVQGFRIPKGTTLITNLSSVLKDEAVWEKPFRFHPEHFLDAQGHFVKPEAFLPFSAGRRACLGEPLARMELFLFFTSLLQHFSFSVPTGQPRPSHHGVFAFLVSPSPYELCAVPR

Cytochrome P450 2C9 = Cytochrome P450 2C9 (Homo sapiens, UniProt P11712); conditions: Potency
Cytochrome P450 3A4 = Cytochrome P450 3A4 (Homo sapiens, UniProt P08684); conditions: Potency;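 further: confirmatory qHTS run detecting inhibitors and substrates of CYP3A4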
[9] = A Cell Based Secondary Assay To Explore Cytotoxicity of Compounds that Sensitize Mycobacterium Tuberculosis to Beta-Lactam Antibiotics.; format: functional
CAAX prenyl protease 2 [10] = target: CAAX prenyl protease 2 (Saccharomyces cerevisiae S288c, UniProt Q03530); format: biochemical
CAAX prenyl protease 2 (Saccharomyces cerevisiae S288c, UniProt Q03530), sequence (Q03530 whole entry): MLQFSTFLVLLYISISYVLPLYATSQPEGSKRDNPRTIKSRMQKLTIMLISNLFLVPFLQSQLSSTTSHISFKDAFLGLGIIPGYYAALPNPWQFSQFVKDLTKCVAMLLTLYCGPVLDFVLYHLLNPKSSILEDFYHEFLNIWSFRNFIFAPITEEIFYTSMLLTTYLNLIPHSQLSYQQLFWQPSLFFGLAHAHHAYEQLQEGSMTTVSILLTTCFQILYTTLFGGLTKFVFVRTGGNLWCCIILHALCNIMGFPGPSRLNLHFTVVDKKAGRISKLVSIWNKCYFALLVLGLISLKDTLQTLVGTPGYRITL

CAAX prenyl protease 2 [11] = target: T3, CAAX prenyl protease 2 (Homo sapiens, UniProt Q9Y256); assay: human Rce1 protease inhibitors, dose response, biochemical, yeast membranes, quenched-peptide fluorescence, cherry-pick (AID 588849)
T3 sequence (Q9Y256 whole entry): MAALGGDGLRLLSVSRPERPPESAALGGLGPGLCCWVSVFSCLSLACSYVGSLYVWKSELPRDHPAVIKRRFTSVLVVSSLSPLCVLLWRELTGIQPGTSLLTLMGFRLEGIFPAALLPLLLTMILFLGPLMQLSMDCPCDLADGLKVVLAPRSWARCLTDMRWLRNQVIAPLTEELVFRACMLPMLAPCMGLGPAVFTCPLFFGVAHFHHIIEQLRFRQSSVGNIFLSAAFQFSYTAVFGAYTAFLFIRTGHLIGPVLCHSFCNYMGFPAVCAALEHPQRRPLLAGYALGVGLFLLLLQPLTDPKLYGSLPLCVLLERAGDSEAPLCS

Trypsin = Trypsin (Sus scrofa, UniProt P00761); assay: porcine trypsin inhibitors, dose response, selectivity assay for Rce1 protease inhibitor project, biochemical, quenched peptide fluorescence, cherry-pick (AID 488789)
[12] = target: Neurotensin receptor type 1 (Homo sapiens, UniProt P30989); format: functional;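 further: Image-based confirmatory dose-response assay measuring agonist activity at NTR1; NTR1-expressing U2OS osteosarcoma cells imaged for beta-arrestin GFP spot formation; agonist potency where compounds increase beta-arrestin recruitment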
[13] = target: T4, Corticotropin-releasing factor receptor 2/Corticotropin-releasing factor-binding protein (Homo sapiens, UniProt P24387+Q13324); assay: activators of CRF receptor 2 with binding protein – uHTS hits, confirmation (AID 602473); format: functional; conditions: read-out: EC50_Mean
T4 sequence (Q13324 whole entry): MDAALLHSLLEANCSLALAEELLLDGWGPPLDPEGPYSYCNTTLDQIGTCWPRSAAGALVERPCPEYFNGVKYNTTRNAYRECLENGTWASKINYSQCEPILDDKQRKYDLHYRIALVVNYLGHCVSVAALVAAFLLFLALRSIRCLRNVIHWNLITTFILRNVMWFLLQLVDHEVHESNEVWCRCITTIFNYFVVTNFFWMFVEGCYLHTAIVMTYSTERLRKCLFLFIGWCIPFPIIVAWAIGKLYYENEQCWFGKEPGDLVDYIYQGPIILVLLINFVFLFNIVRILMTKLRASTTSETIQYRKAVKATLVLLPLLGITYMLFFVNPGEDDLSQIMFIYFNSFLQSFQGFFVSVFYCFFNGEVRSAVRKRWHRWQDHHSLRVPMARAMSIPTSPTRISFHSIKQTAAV
T4 sequence (P24387 whole entry): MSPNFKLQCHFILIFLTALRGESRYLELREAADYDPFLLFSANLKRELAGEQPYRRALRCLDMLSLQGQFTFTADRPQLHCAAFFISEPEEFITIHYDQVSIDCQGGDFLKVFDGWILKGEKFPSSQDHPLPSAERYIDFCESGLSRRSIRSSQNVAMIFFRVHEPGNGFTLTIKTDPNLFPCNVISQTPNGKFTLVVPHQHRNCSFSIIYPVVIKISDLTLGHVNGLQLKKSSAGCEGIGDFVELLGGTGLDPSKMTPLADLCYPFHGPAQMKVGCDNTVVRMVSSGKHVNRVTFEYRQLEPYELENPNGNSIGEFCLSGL

NC(=S)n1[nH]c(-c2ccc([N+](=O)[O-])cc2)c(/N=N/c2cccc([N+](=O)[O-])c2)c1=O
EC50 [1]: > 150 µM (inactive)
IC50 [2]: > 50 µM (inactive)
AC50 [3]: 15.5 µM (active)
IC50 [4]: 4 µM (active)
EC50 [5]: 11.6 µM (active)
IC50 [6]: 2.66 µM (active)
IC50 [7]: 42.5 µM (active)

Cc1ccc(-c2nc3c(c(=O)[nH]c(=O)n3Cc3ccccc3)n2C)o1
IC50 [8]: 4.71 µM (active)
IC50 [2]: 6.21 µM (active)
IC50 [4]: 6.07 µM (active)

Nc1c(S(=O)(=O)O)cc(Nc2ccc(Nc3nc(Cl)nc(Nc4ccc(S(=O)(=O)O)cc4)n3)c(S(=O)(=O)O)c2)c2c1C(=O)c1ccccc1C2=O
AC50 (Cytochrome P450 2D6): 39.8 µM (inconclusive)
AC50 (Cytochrome P450 2C9): 39.8 µM (inconclusive)
AC50 (Cytochrome P450 3A4): 25.1 µM (inconclusive)

Cc1ccc(C(C)C)c(OCc2ccc(C(=O)N/N=C/c3ccc(C(=O)O)cc3)cc2)c1
CC50 [9]: > 40 µM (active)

Cc1cc(C)cc(Nc2ccc(C(=O)O)cc2N)c1
AC50 (CAAX prenyl protease 2 [10]): 84.5 µM (active)
AC50 (CAAX prenyl protease 2 [11]): 3.8 µM (active)
AC50 (Trypsin): 2.73 µM (active)

CC1(C)CC(=O)C(=Cc2cn(-c3ccccc3)nc2-c2ccc(Cl)cc2)C(=O)C1
EC50 [12]: 35.3 µM (inactive)
EC50 [13]: > 53 µM (inactive)
